Experimental findings from PubChem BioAssay (NCI) are described below.

Among the test systems are A549 NSCLC; CAKI-1 renal; EKVX NSCLC; HS 578T breast; KM12 colon; M14 melanoma; MDA-N; NCI-H226 lung; NCI-H522 lung; RPMI-8226 leukemia; RXF 393 renal; SK-MEL-2 melanoma; SK-MEL-28 melanoma; SK-MEL-5 melanoma; SNB-75 CNS; TK-10 renal.
What all share (assay): NCI tumour cell line growth inhibition, 48 h

Molecules are shown by their SMILES.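 Step 1: Grow cells in 96-well plates. Step 2: Expose to compound for 48 hours at 5 concentrations. Step 3: Interpolate endpoints linearly; if unreached, use highest concentration. TGI: total growth inhibition.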 Some results are limits rather than exact numbers.

Take `CC1C/C(=N\N(C)C)C(C#N)(C#N)C1(C#N)C#N` (centres undefined): the TGI in the assay with A549 NSCLC is 69.5 µM; in the assay on CAKI-1 renal, 3.38 µM; in the assay with EKVX NSCLC, 56.1 µM; in the assay with HS 578T breast, above 88.3 µM; in the assay on KM12 colon it was above 31.6 µM; in the assay with M14 melanoma, 31.7 µM. The TGI in the assay on MDA-N was 33 µM; with NCI-H226 lung it was above 65.9 µM; in the assay on NCI-H522 lung, 4.13 µM; in the assay with RPMI-8226 leukemia, 25.5 µM; in the assay on RXF 393 renal, 23.9 µM; in the assay with SK-MEL-2 melanoma it was 48.8 µM. Further, the TGI with SK-MEL-28 melanoma was above 78.6 µM; with SK-MEL-5 melanoma it was 44.2 µM; with SNB-75 CNS, 27 µM; with TK-10 renal, 27.6 µM.

Consider `CC1(C)CN=C(Nc2ccc(Cl)cc2)S1`, for which the TGI in the assay on A549 NSCLC, in the assay on CAKI-1 renal, with EKVX NSCLC, in the assay on HS 578T breast, with KM12 colon and with M14 melanoma was above 100 µM each time. In addition, the TGI with MDA-N, in the assay on NCI-H226 lung, in the assay on NCI-H522 lung, in the assay with RPMI-8226 leukemia, in the assay on RXF 393 renal and with SK-MEL-2 melanoma was above 100 µM each time. Moreover, the TGI with SK-MEL-28 melanoma, with SK-MEL-5 melanoma, in the assay on SNB-75 CNS and in the assay with TK-10 renal was above 100 µM throughout.

In the case of `CC(C)(C)OC(=O)NC(Cc1cnc[nH]1)C(=O)N1CCCC1C(N)=O` (centres undefined), the TGI with A549 NSCLC, with CAKI-1 renal, in the assay with EKVX NSCLC, in the assay with HS 578T breast, in the assay with KM12 colon and in the assay with M14 melanoma was above 100 µM throughout. For the same compound, the TGI was above 100 µM in the assay with MDA-N; above 100 µM with NCI-H226 lung; above 100 µM with NCI-H522 lung; above 100 µM with RPMI-8226 leukemia; 92.3 µM with RXF 393 renal; above 100 µM with SK-MEL-2 melanoma. The TGI in the assay with SK-MEL-28 melanoma, in the assay on SK-MEL-5 melanoma, in the assay on SNB-75 CNS and with TK-10 renal was above 100 µM each time.

With `CCN(CC)Cc1nc(C2CCC([N+](=O)[O-])O2)no1` (centres undefined), the TGI was above 100 µM in the assay on A549 NSCLC; above 100 µM in the assay on CAKI-1 renal; above 100 µM with EKVX NSCLC; 82.4 µM with HS 578T breast; above 100 µM in the assay with KM12 colon; 28.3 µM in the assay on M14 melanoma. In addition, the TGI was 37.5 µM with MDA-N; above 100 µM in the assay on NCI-H226 lung; 31 µM in the assay on NCI-H522 lung; above 100 µM in the assay on RPMI-8226 leukemia; 86.8 µM in the assay on RXF 393 renal; 72.6 µM in the assay on SK-MEL-2 melanoma. The TGI is 53.8 µM in the assay on SK-MEL-28 melanoma, 30.2 µM with SK-MEL-5 melanoma, 96.6 µM in the assay with SNB-75 CNS and above 100 µM in the assay on TK-10 renal.

Consider `N=C(N)n1[nH]c2c(c1=O)CCCC2`, for which the TGI in the assay on A549 NSCLC, with CAKI-1 renal, in the assay on EKVX NSCLC, with HS 578T breast, with KM12 colon and in the assay with M14 melanoma was above 100 µM throughout. Also, the TGI in the assay on MDA-N, in the assay on NCI-H226 lung, in the assay on NCI-H522 lung, in the assay on RPMI-8226 leukemia, in the assay on RXF 393 renal and in the assay on SK-MEL-2 melanoma was above 100 µM in each case. For the same compound, the TGI was above 100 µM in the assay on SK-MEL-28 melanoma, above 100 µM in the assay on SK-MEL-5 melanoma, 99.7 µM with SNB-75 CNS and above 100 µM in the assay on TK-10 renal.

As for `CCOC(=O)c1cc2c([nH]1)C(=O)CC1=C2CCN1Cc1ccccc1`, the TGI in the assay with A549 NSCLC came to 73.5 µM; in the assay with CAKI-1 renal, 15 µM; in the assay on EKVX NSCLC it was 37.4 µM; in the assay on HS 578T breast, 57.4 µM; with KM12 colon, 33.2 µM; in the assay on MDA-N it was 26.8 µM. Besides, the TGI with NCI-H226 lung stood at 32.3 µM; with NCI-H522 lung, 38.5 µM; with RPMI-8226 leukemia, 16.6 µM; with RXF 393 renal it was 30.5 µM; with SK-MEL-2 melanoma it was 42.5 µM; with SK-MEL-28 melanoma, 32.7 µM. Moreover, the TGI in the assay on SNB-75 CNS is 46.2 µM; with TK-10 renal it was 30 µM.

For `CC(C)CC(=O)NC(NC(C)C)(C(F)(F)F)C(F)(F)F`, the TGI in the assay with A549 NSCLC, in the assay on CAKI-1 renal, with EKVX NSCLC, in the assay with HS 578T breast, in the assay with KM12 colon and in the assay with MDA-N was above 100 µM each time. Further, the TGI in the assay with NCI-H226 lung, in the assay on NCI-H522 lung, in the assay with RPMI-8226 leukemia, with RXF 393 renal, with SK-MEL-2 melanoma and in the assay with SK-MEL-28 melanoma was above 100 µM throughout. In addition, the TGI in the assay on SK-MEL-5 melanoma, in the assay on SNB-75 CNS and in the assay on TK-10 renal was above 100 µM each time.

On to `Cc1ccc2[nH]c3[nH]c(=O)[nH]c(=O)c3c2c1`, for which the TGI in the assay on A549 NSCLC, in the assay on CAKI-1 renal, in the assay on EKVX NSCLC, with HS 578T breast, with KM12 colon and with M14 melanoma was above 100 µM each time. In addition, the TGI with MDA-N, with NCI-H226 lung, with NCI-H522 lung, with RPMI-8226 leukemia, in the assay with RXF 393 renal and in the assay on SK-MEL-2 melanoma was above 100 µM throughout. The TGI in the assay on SK-MEL-5 melanoma, in the assay with SNB-75 CNS and with TK-10 renal was above 100 µM in each case.

In the case of `O=C(/C=C(\Nc1ccccc1O)c1ccccc1)C(=O)NC12CC3CC(CC(C3)C1)C2`, the TGI in the assay on CAKI-1 renal, in the assay with EKVX NSCLC, in the assay on HS 578T breast, in the assay on KM12 colon, in the assay with M14 melanoma and in the assay with MDA-N was above 10 µM throughout. Further, the TGI in the assay with NCI-H226 lung, with NCI-H522 lung, in the assay on RPMI-8226 leukemia, in the assay on RXF 393 renal, in the assay on SK-MEL-2 melanoma and with SK-MEL-28 melanoma was above 10 µM in each case. Moreover, the TGI in the assay with SK-MEL-5 melanoma, in the assay on SNB-75 CNS and in the assay with TK-10 renal was above 10 µM in each case.
